From article PMC5342526, “Identification of Bisindolylmaleimide IX as a potential agent to treat drug-resistant BCR-ABL positive leukemia” (Oncotarget, 2016)

How the values were obtained:
BCR-ABL BaF3 cells [1] = experiment: cells; details: Mus musculus, BaF3, 24 h, read-out: IC50, cell survival
MEFs = experiment: Cell cycle analysis by FACS; type: cell-based, mouse; details: 24 hrs
Protocol: Cells were seeded on 35-mm dishes and cultured for 24 hrs, reaching 60–70% confluency. The cells were treated with different concentrations of Bisindolylmaleimide IX for 24 or 48 hrs, harvested by trypsinization, resuspended in 200 μl PBS, and fixed in 100% ethanol overnight at 4°C. The fixed cells were pelleted by centrifugation, resuspended in 800 μl PBS containing ribonuclease A (100 μg/ml) and incubated for 30 min at 37°C. Then 10 μl propidium iodide (PI, 4 mg/ml PBS) were added to the samples, which were assessed on a FACSCalibur flow cytometer using Cell Quest software (BD Bioscience).

[2] = system: intravenously injected T315I BCR-ABL positive BaF3 cells; experiment: Lifespan of nude mice after intravenous cell injection; type: in vivo, mouse; details: 2 or 4 mg/kg every day
Protocol: (§1) For solid tumor models, the mice were injected with 4 mg / kg of Bisindolylmaleimide IX or solvent. The length (L) and width (W) of the tumor were measured by a digital caliper and expressed as tumor volume (0.5 L×W^2, mm^3). The body weight and the lifespan of the mice with intravenous injection of BaF3 cells were monitored every day. For B-Raf knockdown, lentivirus-mediated expressing shRNA against B-Raf was used.

[3] = system: intravenously injected BCR-ABL positive BaF3 cells; experiment: as above; type: in vivo, mouse; details: 2 or 4 mg/kg every day
Protocol: as §1

Vector MEF cells = experiment: Wst-1 cell survival assay; details: Mus musculus, 24 h, read-out: IC50, cell survival
Protocol: We then evaluated the cytotoxic effect of Bisindolylmaleimide IX in MEFs and HCT116 cells. Different doses of Bisindolylmaleimide IX were applied to the cell cultures and cell survival rates and IC50 were determined with Wst-1 assay.
To measure cell survival rates after Bisindolylmaleimide IX treatment, cells were plated at 1×10^4 in 96 well plates and cultured for overnight, which were then treated with Bisindolylmaleimide IX for 48 hrs. Cell proliferation reagent WST-1 (Roche) was added to each well and was further incubated for 4 hrs at 37°C. The absorbance was measured against a control using microplate reader at 440 nm. The reference wavelength was 630 nm.

B-Raf = target: T1, B-Raf (Homo sapiens, UniProt P15056); experiment: Z'-LYTE in vitro kinase assay; type: biochemical; details: mean ±SEM
T1 construct: made in house; host or cells: Escherichia coli BL21-Codon Plus (DE3)
Protocol: (§2) The recombinant Auror, B-Raf, IKKβ, SYK, BCR-Abl, MEK1 and Erk1 proteins were expressed in Escherichia coli strain BL21-Codon Plus (DE3), purified by Ni-NTA Agarose (QIAGEN). The kinase assays were carried out with the Z'-LYTETM Kinase Assay kit using Ser/Thr3 Peptide substrate (Invitrogen). The reactions were carried out according to the Z-LYTE protocol and the results were read on an EnVision plate reader. All reactions were carried out in triplicate. Data were expressed as mean ±SEM.

BCR-ABL = BCR-ABL (Homo sapiens, UniProt P00519); experiment: Z'-LYTE in vitro kinase assay; type: biochemical
Protocol: as §2

IKKβ = target: T2, IKKβ (Homo sapiens, UniProt O14920); experiment: Z'-LYTE in vitro kinase assay; type: biochemical; details: mean ±SEM
T2 construct: made in house; host or cells: Escherichia coli BL21-Codon Plus (DE3)
Protocol: as §2

ERK1 = target: T3, ERK1 (Homo sapiens, UniProt P27361); experiment: Z'-LYTE in vitro kinase assay; type: biochemical
T3 construct: made in house; host or cells: Escherichia coli BL21-Codon Plus (DE3)
Protocol: as §2

MEK1 = target: T4, MEK1 (Homo sapiens, UniProt Q02750); experiment: Z'-LYTE in vitro kinase assay; type: biochemical
T4 construct: made in house; host or cells: Escherichia coli BL21-Codon Plus (DE3)
Protocol: as §2

Aurora A = target: T5, Aurora A (Homo sapiens, UniProt O14965); experiment: Z'-LYTE in vitro kinase assay; type: biochemical; details: mean ±SEM
T5 construct: made in house; host or cells: Escherichia coli BL21-Codon Plus (DE3)
Protocol: as §2

SYK = target: T6, SYK (Homo sapiens, UniProt P43405); experiment: Z'-LYTE in vitro kinase assay; type: biochemical
T6 construct: made in house; host or cells: Escherichia coli BL21-Codon Plus (DE3)
Protocol: as §2

HCT116 cells = experiment: Wst-1 cell survival assay; details: HCT116, compared to other genotoxic drugs such as Itu
DNA topoisomerase = experiment: in vitro DNA relaxation reaction with BaF3 cell lysates; type: biochemical, murine; details: 0, 2, 4 or 8 μM, pBluescript
Protocol: Figure 1 Identification of Bisindolylmaleimide IX as a genotoxic agent and a topoisomerase inhibitor A. The structures of Bisindolylmaleimide IX. B. Bisindolylmaleimide IX induced p53 expression in MEFs and HCT116 cells. Upper panel: primary MEFs were treated with 2.5 μM Bisindolylmaleimide IX for different periods of time and the cells were collected. The levels of p53 were determined by western blot. Bottom panel: HCT116 cells were treated with 2.5 μM Bisindolylmaleimide IX for different periods of time and the cells were collected. The levels of p53 were determined by western blot. C. Bisindolylmaleimide IX induced formation of DNA damage foci for γH2AX and p-Atm in MEFs. Primary MEFs were pretreated with caffeine or solvent for 2 hrs and then with 2.5 μM of Bisindolylmaleimide IX, Bisindolylmaleimide I, or Enzastaurin for 4 more hrs. γH2AX and p-Atm were detected with immunofluorescent staining using specific antibodies. D. Bisindolylmaleimide IX inhibited the topoisomerase activity assayed with pBluescript. DNA samples of pBluescript were incubated with cell lysates of MEFs, which were treated with 0, 4 or 8 μM Bisindolylmaleimide IX before being harvested. DNA samples were analyzed on agarose gels. […] DNA samples of pBluescript were incubated with cell lysates of BaF3 in the presence of 0, 2, 4 or 8 μM Bisindolylmaleimide IX. DNA samples were analyzed on agarose gels. […]

[4] = system: B-Raf in BCR-ABL positive BaF3 cells; experiment: B-Raf phosphorylation, western blot; type: cell-based, murine
Protocol: Activation and expression of Erk, Mek1, and Raf were determined by western blot. B. Inhibition of Erk decreased the cell survival rates in BaF3 cells expressing BCR-ABL compared to control cells. […] C. […] N=3. Right panel: Western blot results showing that B-Raf was knocked down in these cells.

γH2AX foci in MEFs = experiment: γH2AX DNA damage foci, immunofluorescent staining; type: cell-based, mouse; details: 2.5 μM, 4 hrs
Protocol: MEFs or HCT116 cells were cultured on cover slips while Baf3 cells were cultured on slides coated by 0.1mg/ml poly-L-lysine, washed with phosphate-buffered saline (PBS) twice, and then fixed in 4% paraformaldehyde (PFA), which were permeabilized with 0.1% Triton X in PBS for 30 minutes at room temperature. The primary antibodies were diluted in PBS with 1% BSA (1:200). The slides were blocked (1% BSA in PBS) for 60 minutes at room temperature, incubated with primary antibodies overnight at 4°C, and followed by secondary antibody incubation for 60 min at RT. The slides were then mounted and observed under confocal microscope (Leica, Germany). Antibodies against γH2AX were from Bethyl Corporation.

BCR-ABL BaF3 cells [5] = details: BCR-ABL BaF3, 24 hrs, compared among bisindolylmaleimide derivatives

BCR-ABL, sequence (P00519 27-1130): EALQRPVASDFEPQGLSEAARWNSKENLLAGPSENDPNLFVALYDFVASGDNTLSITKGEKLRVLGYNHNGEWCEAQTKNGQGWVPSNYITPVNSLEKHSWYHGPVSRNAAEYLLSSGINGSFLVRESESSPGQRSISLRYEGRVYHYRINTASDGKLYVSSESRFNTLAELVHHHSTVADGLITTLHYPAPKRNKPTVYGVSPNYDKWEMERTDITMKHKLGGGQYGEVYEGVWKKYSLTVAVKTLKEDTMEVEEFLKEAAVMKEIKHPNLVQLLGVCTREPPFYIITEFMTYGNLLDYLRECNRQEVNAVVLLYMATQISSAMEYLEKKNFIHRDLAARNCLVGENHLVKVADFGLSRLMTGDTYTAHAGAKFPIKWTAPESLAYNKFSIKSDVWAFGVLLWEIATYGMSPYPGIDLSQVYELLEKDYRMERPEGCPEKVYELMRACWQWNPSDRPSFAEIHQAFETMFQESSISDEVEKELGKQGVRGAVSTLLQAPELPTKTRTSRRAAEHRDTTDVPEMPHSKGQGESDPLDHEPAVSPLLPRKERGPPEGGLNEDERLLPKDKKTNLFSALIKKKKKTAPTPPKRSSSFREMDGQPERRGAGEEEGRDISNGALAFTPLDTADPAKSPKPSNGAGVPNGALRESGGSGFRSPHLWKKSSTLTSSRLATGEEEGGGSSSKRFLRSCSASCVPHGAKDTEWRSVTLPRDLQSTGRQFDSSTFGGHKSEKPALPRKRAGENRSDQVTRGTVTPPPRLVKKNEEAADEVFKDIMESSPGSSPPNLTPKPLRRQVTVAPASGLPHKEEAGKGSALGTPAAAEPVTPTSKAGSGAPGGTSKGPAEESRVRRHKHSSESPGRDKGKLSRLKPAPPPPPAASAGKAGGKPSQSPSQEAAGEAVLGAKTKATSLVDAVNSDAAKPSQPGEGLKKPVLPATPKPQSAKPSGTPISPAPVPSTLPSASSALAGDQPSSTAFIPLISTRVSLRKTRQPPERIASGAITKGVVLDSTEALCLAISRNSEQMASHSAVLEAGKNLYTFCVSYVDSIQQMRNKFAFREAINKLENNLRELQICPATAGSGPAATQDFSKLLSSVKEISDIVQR
BCR-ABL, sequence (P11274 1-927 partner): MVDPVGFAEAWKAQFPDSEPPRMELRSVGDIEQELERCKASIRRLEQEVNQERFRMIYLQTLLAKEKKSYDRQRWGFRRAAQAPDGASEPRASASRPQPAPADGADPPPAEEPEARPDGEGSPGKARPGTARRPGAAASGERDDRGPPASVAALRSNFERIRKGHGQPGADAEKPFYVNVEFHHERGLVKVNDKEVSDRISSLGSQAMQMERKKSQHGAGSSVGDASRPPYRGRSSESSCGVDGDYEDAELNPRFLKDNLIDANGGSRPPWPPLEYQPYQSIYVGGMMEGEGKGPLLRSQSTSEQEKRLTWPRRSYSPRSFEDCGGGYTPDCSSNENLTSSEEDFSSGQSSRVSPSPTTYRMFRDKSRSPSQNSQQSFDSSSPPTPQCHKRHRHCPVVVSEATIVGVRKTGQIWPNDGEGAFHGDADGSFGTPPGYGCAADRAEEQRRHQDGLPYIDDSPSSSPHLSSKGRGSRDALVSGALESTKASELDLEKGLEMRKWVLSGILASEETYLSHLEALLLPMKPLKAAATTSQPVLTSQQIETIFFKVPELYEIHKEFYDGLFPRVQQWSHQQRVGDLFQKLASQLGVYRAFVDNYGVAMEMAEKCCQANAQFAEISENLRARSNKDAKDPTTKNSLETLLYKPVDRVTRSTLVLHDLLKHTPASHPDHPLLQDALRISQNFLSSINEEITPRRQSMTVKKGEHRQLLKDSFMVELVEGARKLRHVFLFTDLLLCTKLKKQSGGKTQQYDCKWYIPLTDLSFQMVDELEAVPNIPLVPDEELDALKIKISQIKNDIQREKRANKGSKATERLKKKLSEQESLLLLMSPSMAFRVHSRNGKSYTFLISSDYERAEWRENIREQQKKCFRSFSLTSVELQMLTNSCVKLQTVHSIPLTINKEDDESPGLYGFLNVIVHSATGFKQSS
T3 sequence (P27361 whole entry, species assumed): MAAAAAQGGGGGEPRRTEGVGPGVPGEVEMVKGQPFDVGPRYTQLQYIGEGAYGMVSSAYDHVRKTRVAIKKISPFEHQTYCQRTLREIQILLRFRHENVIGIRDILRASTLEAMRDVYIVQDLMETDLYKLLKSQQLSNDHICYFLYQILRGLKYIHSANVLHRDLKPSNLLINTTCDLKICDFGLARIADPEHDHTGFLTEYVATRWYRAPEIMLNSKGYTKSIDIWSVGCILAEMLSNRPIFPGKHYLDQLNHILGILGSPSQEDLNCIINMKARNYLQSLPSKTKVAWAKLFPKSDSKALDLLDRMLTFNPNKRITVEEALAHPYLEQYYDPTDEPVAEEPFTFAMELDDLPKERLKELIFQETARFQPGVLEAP
T5 sequence (O14965 whole entry): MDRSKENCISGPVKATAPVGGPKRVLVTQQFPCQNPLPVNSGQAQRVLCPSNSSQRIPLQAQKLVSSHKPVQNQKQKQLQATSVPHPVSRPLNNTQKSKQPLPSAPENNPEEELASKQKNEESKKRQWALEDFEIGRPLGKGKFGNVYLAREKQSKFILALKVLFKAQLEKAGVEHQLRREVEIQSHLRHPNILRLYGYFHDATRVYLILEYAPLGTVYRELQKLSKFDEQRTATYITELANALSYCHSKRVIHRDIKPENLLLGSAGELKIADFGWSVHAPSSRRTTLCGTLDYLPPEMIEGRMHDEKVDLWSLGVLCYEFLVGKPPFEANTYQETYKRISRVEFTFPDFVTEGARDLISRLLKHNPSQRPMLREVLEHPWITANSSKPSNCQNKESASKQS
T1 sequence (P15056 whole entry, species assumed): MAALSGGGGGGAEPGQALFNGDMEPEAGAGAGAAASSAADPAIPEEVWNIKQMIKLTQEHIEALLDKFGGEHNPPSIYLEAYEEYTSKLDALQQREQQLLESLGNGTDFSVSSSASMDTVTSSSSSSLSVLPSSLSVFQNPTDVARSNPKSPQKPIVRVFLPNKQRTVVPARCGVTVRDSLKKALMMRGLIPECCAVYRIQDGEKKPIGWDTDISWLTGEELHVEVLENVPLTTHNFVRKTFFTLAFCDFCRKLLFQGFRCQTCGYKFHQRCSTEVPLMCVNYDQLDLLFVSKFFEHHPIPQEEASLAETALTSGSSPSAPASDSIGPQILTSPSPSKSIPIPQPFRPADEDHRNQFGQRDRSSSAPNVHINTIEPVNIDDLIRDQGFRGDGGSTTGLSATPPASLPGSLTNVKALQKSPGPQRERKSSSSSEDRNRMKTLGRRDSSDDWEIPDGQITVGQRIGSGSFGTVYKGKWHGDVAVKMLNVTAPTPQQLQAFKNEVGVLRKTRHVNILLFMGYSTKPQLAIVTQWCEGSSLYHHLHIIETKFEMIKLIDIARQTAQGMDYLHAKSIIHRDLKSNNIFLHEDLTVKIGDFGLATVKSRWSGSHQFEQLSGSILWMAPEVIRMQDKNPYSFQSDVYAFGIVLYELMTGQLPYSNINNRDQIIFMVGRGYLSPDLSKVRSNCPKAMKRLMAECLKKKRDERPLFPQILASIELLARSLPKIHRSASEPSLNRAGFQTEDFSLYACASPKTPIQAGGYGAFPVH
T4 sequence (Q02750 whole entry, species assumed): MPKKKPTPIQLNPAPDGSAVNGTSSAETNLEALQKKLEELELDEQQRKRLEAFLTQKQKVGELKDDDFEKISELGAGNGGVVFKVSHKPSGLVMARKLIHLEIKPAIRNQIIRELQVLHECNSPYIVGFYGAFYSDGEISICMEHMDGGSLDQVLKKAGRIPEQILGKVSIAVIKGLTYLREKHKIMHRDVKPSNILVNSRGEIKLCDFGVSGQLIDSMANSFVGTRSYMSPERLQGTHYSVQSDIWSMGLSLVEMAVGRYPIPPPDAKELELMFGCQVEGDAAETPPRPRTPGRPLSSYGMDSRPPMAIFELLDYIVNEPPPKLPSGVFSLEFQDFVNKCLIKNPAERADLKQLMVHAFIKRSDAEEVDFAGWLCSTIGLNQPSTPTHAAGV
T2 sequence (O14920 whole entry, species assumed): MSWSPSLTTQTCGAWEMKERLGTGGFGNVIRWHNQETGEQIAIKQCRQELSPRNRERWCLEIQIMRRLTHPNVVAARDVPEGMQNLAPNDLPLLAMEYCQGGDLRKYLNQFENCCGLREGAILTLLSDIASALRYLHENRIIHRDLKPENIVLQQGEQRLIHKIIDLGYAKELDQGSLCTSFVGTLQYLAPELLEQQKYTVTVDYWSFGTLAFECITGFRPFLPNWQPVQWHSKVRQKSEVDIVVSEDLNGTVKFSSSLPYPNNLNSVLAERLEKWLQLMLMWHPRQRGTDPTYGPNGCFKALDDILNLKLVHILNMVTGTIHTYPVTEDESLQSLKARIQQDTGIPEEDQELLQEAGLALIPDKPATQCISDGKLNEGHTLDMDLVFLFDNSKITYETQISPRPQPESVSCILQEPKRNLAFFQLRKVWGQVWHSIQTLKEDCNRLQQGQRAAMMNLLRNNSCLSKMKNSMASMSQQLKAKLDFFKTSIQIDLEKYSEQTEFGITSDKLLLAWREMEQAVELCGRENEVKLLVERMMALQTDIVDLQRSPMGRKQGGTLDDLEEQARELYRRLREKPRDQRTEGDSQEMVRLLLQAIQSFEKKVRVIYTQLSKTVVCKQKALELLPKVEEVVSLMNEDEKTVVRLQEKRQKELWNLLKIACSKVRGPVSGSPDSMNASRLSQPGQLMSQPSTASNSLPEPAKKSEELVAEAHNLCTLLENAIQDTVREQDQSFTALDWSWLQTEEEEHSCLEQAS

## CS(=O)(=O)O.Cn1cc(C2=C(c3cn(CCCSC(=N)N)c4ccccc34)C(=O)NC2=O)c2ccccc21 [Bisindolylmaleimide IX, 3-[1-[3-(Amidinothio)propyl]-3-indolyl]-4-(1-methyl-3-indolyl)-1H-pyrrole-2,5-dione methanesulfonate]
BCR-ABL BaF3 cells [1]
  IC50: 3.26 µM
MEFs
  cell cycle profile: increase in G2/M phase cells and a decrease in S phase cells
[2]
  lifespan of the mice: extend the lifespan
[3]
  lifespan of the mice: extend the lifespan
Vector MEF cells
  IC50: 7.37 µM
B-Raf
  IC50: 1.14 ± 0.11 µM
BCR-ABL
  concentration needed to inhibit BCR-ABL in in vitro kinase assays: 45 µM
BCR-ABL; in vitro kinase assay
  IC50: > 45 µM
IKKβ
  IC50: 0.48 ± 0.005 µM
ERK1
  IC50: > 45 µM
MEK1
  IC50: > 45 µM
Aurora A
  IC50: > 45 µM
SYK
  IC50: > 45 µM
HCT116 cells
  cytotoxicity (in words): modest cytotoxicity
DNA topoisomerase
  topoisomerase activity on addition to the in vitro DNA relaxation reaction: inhibit the topoisomerase activity
[4]
  phosphorylation of B-Raf: inhibited phosphorylation of B-Raf
γH2AX foci in MEFs
  γH2AX foci formation: numerous foci positive for γH2AX
BCR-ABL BaF3 cells [5]
  cytotoxic effect (in words): most potent one
